Key:
[1] = Sulforhodamine B (SRB) growth inhibition assay; format: cell-based; details: SRB growth arrest assay
Method: A growth inhibition assay was also employed for the evaluation of candidate HSP90 inhibitors:
Day 1 • 1) Determine cell number by haemocytometer. • 2) Using an 8 channel multipipettor, add 160 μl of the cell suspension (3600 cells/well or 2×10^4 cells/ml) to each well of a 96-well microtitre plate. • 3) Incubate overnight at 37° C. in a CO2 incubator.
Day 2 • 4) Stock solutions of drugs are prepared, and serial dilutions of each drug are performed in medium to give final concentrations in wells. • 5) Using a multipipettor, 40 μl of drug (at 5× final concentration) is added to quadruplicate wells. • 6) Control wells are at either side of the 96 well plates, where 40 μl of medium is added. • 7) Incubate plates in CO2 incubator for 4 days (48 hours).
Day 6 • 8) Tip off medium into sink and immerse plate slowly into 10% ice cold trichloroacetic acid (TCA). […] Leave for 15 mins. • 12) Wash off unbound SRB stain with four washes of 1% acetic acid. • 13) Dry plates in incubator. • 14) Solubilise SRB using 100 μl of 10 mM Tris base and put plates on plate shaker for 5 mins. • 15) Determine absorbance at 540 nm using a plate reader. Calculate mean absorbance for quadruplicate wells and express as a percentage of value for control, untreated wells. • 16) Plot % absorbance values versus log drug concentration and determine the IC50.

yeast HSP90 = biological target: T1, yeast HSP90 (Saccharomyces cerevisiae, UniProt P02829); assay: Malachite green ATPase assay; format: biochemical; details: activity range
T1 construct: made in house; host or cells: E. coli
T1 sequence (P02829 whole entry): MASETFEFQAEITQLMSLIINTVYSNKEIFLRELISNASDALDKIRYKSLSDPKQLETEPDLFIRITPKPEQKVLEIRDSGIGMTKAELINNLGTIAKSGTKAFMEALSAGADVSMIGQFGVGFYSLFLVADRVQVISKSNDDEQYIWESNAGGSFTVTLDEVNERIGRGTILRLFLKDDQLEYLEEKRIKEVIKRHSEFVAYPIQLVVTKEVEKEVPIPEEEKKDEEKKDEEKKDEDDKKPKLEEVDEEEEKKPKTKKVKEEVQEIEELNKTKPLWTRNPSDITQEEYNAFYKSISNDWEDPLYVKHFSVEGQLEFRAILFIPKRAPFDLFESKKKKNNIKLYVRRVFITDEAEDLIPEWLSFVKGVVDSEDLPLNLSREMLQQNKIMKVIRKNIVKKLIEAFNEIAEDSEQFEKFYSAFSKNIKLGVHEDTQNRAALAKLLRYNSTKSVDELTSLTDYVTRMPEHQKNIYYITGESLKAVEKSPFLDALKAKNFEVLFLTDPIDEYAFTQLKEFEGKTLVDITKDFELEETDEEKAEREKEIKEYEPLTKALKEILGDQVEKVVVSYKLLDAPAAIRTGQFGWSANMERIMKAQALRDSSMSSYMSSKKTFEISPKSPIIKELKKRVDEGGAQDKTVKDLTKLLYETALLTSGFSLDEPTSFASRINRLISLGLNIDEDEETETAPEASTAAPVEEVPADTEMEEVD
From the text: The intrinsic ATPase activity of HSP90 may be measured using yeast HSP90 as a model system. The assay, based on the use of malachite green for the measurement of inorganic phosphate, was used to test the HSP90 inhibitory activity of the compounds of the Examples herein.
Malachite Green ATPase Assay
Chemicals are of the highest purity commercially available and all aqueous solutions are made up in AR water. Because of the need to minimise contamination with inorganic phosphate, precautions should be taken with solutions and apparatus used in the assays. Glassware and pH meters are rinsed with double distilled or deionised water before use and, wherever possible, plastic ware should be used. Gloves are worn for all procedures. • (1) Greiner 384-well (Greiner 781101) or Costar 384-well flat-bottomed polystyrene multiwell plates (VWR). • (2) Assay buffer of (a) 100 mM Tris-HCl, pH 7.4, (b) 150 mM KCl, (c) 6 mM MgCl2. Stored at room temperature. • (3) 0.0812% (w/v) malachite green (M 9636, Sigma Aldrich Ltd., Poole, UK). Stored at room temperature. • (4) 2.32% (w/v) polyvinyl alcohol USP (P 1097, Sigma Aldrich Ltd, Poole, UK) in boiling water (see Comment 1), allowed to cool, and stored at room temperature. • (5) 5.72% (w/v) ammonium molybdate in 6 M hydrochloric acid. Stored at room temperature. • (6) 34% (w/v) sodium citrate. Stored at room temperature. • (7) 100 mM ATP, disodium salt, special quality (47699, Sigma Aldrich). Stored at −20° C. • (8) E. coli expressed yeast HSP90 protein, purified >95% (see, e.g., Panaretou et al., 1998) and stored in 50 uL aliquots at −80° C.
Method • 1. Dilute test compounds to 500 μM in AR water (DMSO concentration will be 2.5%). Transfer 2.5 μl of these compounds directly from the daughter plate to the assay plate, giving a final assay concentration of 100 μM. To obtain 12 point IC50 values, perform serial dilutions 1:2 to produce a range of assay concentrations from 100 μM to 97.6 nM (2.5% DMSO), and transfer 2.5 μl of each concentration into the assay plate. Column 1 in the assay plate contains no compound, as a negative control. An additional row with no compound is also used as a background. • 2. Prepare ATP by diluting 100 mM stock to 925 μM with assay buffer, and aliquot 5 μl of diluted ATP to each well including controls (final assay concentration 370 μM). • 3. Add 5 μl of buffer to background row. • 4. Dilute enzyme preparation to 1.05 μM with assay buffer, and aliquot 5 μl into each compound well and to the negative control column. • 5. Collect the reagents to the bottom of the well, cover plate with plate seal and incubate overnight at 37 degC. • 6. First thing in the morning prepare the Malachite Green Reagent. Add 2 parts of Malachite Green Solution, 1 part of Polyvinyl Alcohol Solution, 1 part of Ammonium Molybdate Solution, and 2 parts of AR water. • 7. Invert to mix, and leave for approximately 1 hour until the colour turns from brown to golden yellow. • 8. Add 40 μl of Malachite Green Reagent to each well, allow 5 mins for colour to develop. • 9. Add 5 μl of Sodium Citrate Reagent to each well (see comment 2) • 10. Re-cover with plate seal and shake on plate shaker for at least 15 mins. • 11. Measure Absorbance at 620 nm using a suitable plate reader (e.g. Victor, Perkin Elmer Life Sciences, Milton Keynes, UK).
Comments • (1) The polyvinyl alcohol dissolves in boiling water with difficulty and stirring for 2-3 h is required. • (2) The time interval between addition of the malachite green reagent and the sodium citrate should be kept as short as possible in order to reduce the non-enzymatic hydrolysis of ATP. Once the sodium citrate is added, the colour is stable for up to 4 h at room temperature. • (3) Compounds can be added to the assay plates using a Biomek FX Robot (Beckman Coulter).

human full-length HSP90 = biological target: T2, human full-length HSP90 (Homo sapiens, UniProt P08238); assay: Fluorescence polarization (FP) binding assay; details: FP assay (asterisk in table), activity range
T2 construct: E. coli expressed human full-length HSP90 protein; made in house; host or cells: E. coli
T2 sequence (P08238 whole entry): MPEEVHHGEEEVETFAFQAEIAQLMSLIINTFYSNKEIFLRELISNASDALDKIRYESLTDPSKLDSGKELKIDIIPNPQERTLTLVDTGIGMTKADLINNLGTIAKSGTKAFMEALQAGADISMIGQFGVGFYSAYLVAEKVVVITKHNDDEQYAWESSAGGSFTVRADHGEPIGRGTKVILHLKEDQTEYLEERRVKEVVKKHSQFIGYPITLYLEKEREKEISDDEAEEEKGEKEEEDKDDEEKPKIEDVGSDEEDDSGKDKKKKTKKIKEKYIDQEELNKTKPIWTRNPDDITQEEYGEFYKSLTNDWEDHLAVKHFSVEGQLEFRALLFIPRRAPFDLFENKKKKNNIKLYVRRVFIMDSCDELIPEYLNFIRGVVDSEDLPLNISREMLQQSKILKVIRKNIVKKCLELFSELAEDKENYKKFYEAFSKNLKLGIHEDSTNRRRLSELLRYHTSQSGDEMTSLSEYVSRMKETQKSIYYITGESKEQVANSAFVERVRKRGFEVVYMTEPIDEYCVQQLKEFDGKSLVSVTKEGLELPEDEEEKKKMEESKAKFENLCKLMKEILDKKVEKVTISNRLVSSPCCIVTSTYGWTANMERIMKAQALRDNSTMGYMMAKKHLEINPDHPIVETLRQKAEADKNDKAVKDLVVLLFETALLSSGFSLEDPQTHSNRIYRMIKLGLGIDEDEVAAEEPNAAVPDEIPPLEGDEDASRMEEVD
From the text: Fluorescence Polarization Assay
Fluorescence polarization {also known as fluorescence anisotropy} measures the rotation of a fluorescing species in solution, where the larger molecule the more polarized the fluorescence emission. When the fluorophore is excited with polarized light, the emitted light is also polarized. The molecular size is proportional to the polarization of the fluorescence emission.
The fluoroscein-labelled probe—RBT0045864-FAM—
[drawing 121] binds to HSP90 {full-length human, full-length yeast or N-terminal domain HSP90} and the anisotropy {rotation of the probe:protein complex} is measured.
Test compound is added to the assay plate, left to equilibrate and the anisotropy measured again. Any change in anisotropy is due to competitive binding of compound to HSP90, thereby releasing probe.
Chemicals are of the highest purity commercially available and all aqueous solutions are made up in AR water. • 1) Costar 96-well black assay plate #3915 • 2) Assay buffer of (a)100 mM Tris pH7.4; (b) 20 mM KCl; (c) 6 mM MgCl2. Stored at room temperature. • 3) BSA (bovine serum albumen) 10 mg/ml (New England Biolabs # B9001S) • 4) 20 mM probe in 100% DMSO stock concentration. Stored in the dark at RT. Working concentration is 200 nM diluted in AR water and stored at 4° C. Final concentration in assay 80 nM. • 5) E. coli expressed human full-length HSP90 protein, purified >95% (see, e.g., Panaretou et al., 1998) and stored in 50 μL aliquots at −80° C.
Protocol • 1) Add 100 μl 1× buffer to wells 11 A and 12A (=FP BLNK) • 2) Prepare assay mix—all reagents are kept on ice with a lid on the bucket as the probe is light-sensitive.
• 3) Aliquot 100 μl assay mix to all other wells • 4) Seal plate and leave in dark at room temp for 20 minutes to equilibrate
Compound Dilution Plate—1×3 Dilution Series • 1) In a clear 96-well v-bottom plate—{# VWR 007/008/257} add 10 μl 100% DMSO to wells B1 to H11 • 2) To wells A1 to A11 add 17.5 μl 100% DMSO • 3) Add 2.5 μl cpd to A1. This gives 2.5 mM {50×} stock cpd—assuming cpds 20 mM. • 4) Repeat for wells A2 to A10. Control in columns 11 and 12. • 5) Transfer 5 μl from row A to row B—not column 12. Mix well. • 6) Transfer 5 μl from row B to row C. […] In column 11 {provides standard curve} only add compound B11-H11. Add 2 μl of 100 mM standard cpd to wells B12-H12 {is positive control } • 13)The Z′ factor is calculated from zero controls and positive wells. It typically gives a value of 0.7-0.9.
The compounds tested in the above assay were assigned to one of two activity ranges, namely A=<10 μM; B=>10 μM, and those assignments are reported above.

Structure (SMILES): Oc1cc(O)c(-c2n[nH]cc2N2CCNCC2)cc1Cl [Example 2, 4-Chloro-6-(4-piperazin-1-yl-1H-pyrazol-3-yl)-benzene-1,3-diol]
- IC50 [1]: < 50 µM
- IC50 (yeast HSP90): < 50 µM

Structure (SMILES): COc1ccc(CC(=O)N2CCN(c3c[nH]nc3-c3cc(Cl)c(O)cc3O)CC2)cc1 [Example 42]
- IC50 (human full-length HSP90): > 10 µM

Structure (SMILES): CNC(=O)c1cccc(CN2CCN(c3c[nH]nc3-c3cc(Cl)c(O)cc3O)CC2)c1 [Example 44]
- IC50 (human full-length HSP90): < 10 µM

Structure (SMILES): CCOC(=O)CN1CCN(c2c[nH]nc2-c2cc(Cl)c(O)cc2O)CC1 [Example 45]
- IC50 (human full-length HSP90): < 10 µM

Structure (SMILES): O=C(O)CN1CCN(c2c[nH]nc2-c2cc(Cl)c(O)cc2O)CC1 [Example 46]
- IC50 (human full-length HSP90): < 10 µM

Structure (SMILES): CC(=O)c1ccc(CN2CCN(c3c[nH]nc3-c3cc(Cl)c(O)cc3O)CC2)cc1 [Example 47]
- IC50 (human full-length HSP90): < 10 µM

Structure (SMILES): O=S(=O)(c1ccsc1)N1CCN(c2c[nH]nc2-c2cc(Cl)c(O)cc2O)CC1 [Example 48]
- IC50 (human full-length HSP90): < 10 µM

Structure (SMILES): Cc1[nH]nc(-c2cc(Cl)c(O)cc2O)c1N1CCNCC1 [Example 49, 4-Chloro-6-(5-methyl-4-piperazin-1-yl-1H-pyrazol-3-yl)-benzene-1,3-diol]
- IC50 (human full-length HSP90): < 10 µM

Structure (SMILES): OCc1[nH]nc(-c2cc(Cl)c(O)cc2O)c1N1CCNCC1 [Example 50, 4-Chloro-6-(5-hydroxymethyl-4-piperazin-1-yl-1H-pyrazol-3-yl)-benzene-1,3-diol]
- IC50 (human full-length HSP90): < 10 µM

Structure (SMILES): CC(=O)Nc1ccc(-c2n[nH]cc2N2CCNCC2)c(O)c1 [Example 53, 3-[4-Acetamido-2-hydroxyphenyl]-4-(piperazin-1-yl)-1H-pyrazole]
- IC50 (human full-length HSP90): > 10 µM

Structure (SMILES): Cc1c[nH]c2cc(O)c(-c3n[nH]cc3N3CCNCC3)cc12 [Example 54, 3-Methyl-5-(4-piperazin-1-yl-1H-pyrazol-3-yl)-1H-indol-6-ol]
- IC50 (human full-length HSP90): > 10 µM

Structure (SMILES): Cc1ccc(C)c(CCc2cc(-c3n[nH]cc3N3CCNCC3)c(O)cc2O)c1 [Example 74]
- IC50 (yeast HSP90): < 50 µM

Structure (SMILES): Cc1ccccc1CCc1cc(-c2n[nH]cc2N2CCNCC2)c(O)cc1O [Example 75]
- IC50 (yeast HSP90): < 50 µM

Structure (SMILES): COc1ccc(CCc2cc(-c3n[nH]cc3N3CCNCC3)c(O)cc2O)cc1 [Example 76]
- IC50 (yeast HSP90): < 50 µM

Structure (SMILES): Oc1cc(O)c(-c2n[nH]cc2N2CCC(NCc3ccccc3)CC2)cc1Br [Example 79]
- IC50 (yeast HSP90): < 50 µM

Structure (SMILES): Oc1cc(O)c(-c2n[nH]cc2N2CCC(NCc3ccc(F)cc3)CC2)cc1Br [Example 80]
- IC50 (yeast HSP90): < 50 µM

Structure (SMILES): COc1ccc(CNC2CCN(c3c[nH]nc3-c3cc(Br)c(O)cc3O)CC2)cc1 [Example 81]
- IC50 (yeast HSP90): < 50 µM

Structure (SMILES): Oc1cc(O)c(-c2n[nH]cc2N2CCC(NCc3ccc(Cl)cc3)CC2)cc1Br [Example 82]
- IC50 (yeast HSP90): < 50 µM

Structure (SMILES): Oc1cc(O)c(-c2n[nH]cc2N2CCC(NCc3ccc4c(c3)OCO4)CC2)cc1Br [Example 83]
- IC50 (yeast HSP90): < 50 µM

Structure (SMILES): O=[N+]([O-])c1ccc(CNC2CCN(c3c[nH]nc3-c3cc(Br)c(O)cc3O)CC2)cc1 [Example 84]
- IC50 (yeast HSP90): < 50 µM

Structure (SMILES): Oc1cc(O)c(-c2n[nH]cc2N2CCC(NCc3ccc(Br)cc3)CC2)cc1Br [Example 85]
- IC50 (yeast HSP90): < 50 µM

Structure (SMILES): NS(=O)(=O)c1ccc(CNC2CCN(c3c[nH]nc3-c3cc(Br)c(O)cc3O)CC2)cc1 [Example 86]
- IC50 (yeast HSP90): < 50 µM

Structure (SMILES): CCNC1CCN(c2c[nH]nc2-c2cc(Br)c(O)cc2O)CC1 [Example 97]
- IC50 (yeast HSP90): < 50 µM

Structure (SMILES): OCCNC1CCN(c2c[nH]nc2-c2cc(Br)c(O)cc2O)CC1 [Example 98]
- IC50 (yeast HSP90): < 50 µM
